Test results as given in patent US12594292B2, “Antiviral prodrugs, intermediate-and long-acting formulations and methods” (priority 2022, dated 2026).

Key:
[1] = tested on: Calu-3 cells; assay: Cytotoxicity in Calu-3 cells, nuclei count or CellTiter-Glo (Example 6); settings: for select compounds up to 100 μM by CellTiter-Glo
Description: After which an equal volume of CellTiter-Glo reagent (Cat. #G7570, Promega, Madison, WI) was added, mixed and luminescence recorded on a Veritas Microplate Luminometer (Turner BioSystems) according to manufacturer recommendations.

[2] = tested on: SARS-CoV-2; assay: SARS-CoV-2 infection assay in Calu-3 cells, nucleocapsid immunofluorescence (Example 6); settings: MOI 0.01, 44 hour
[3] = tested on: HCoV-229E; type: cell-based, human Coronavirus 229E
[4] = tested on: MRC-5 cells
[5] = tested on: SARS-CoV-2; assay: SARS-CoV-2 infection assay in Huh7.5 cells, nucleocapsid immunofluorescence (Example 6); type: cell-based; settings: MOI 0.1, 48 hours
[6] = tested on: Huh7.5 cells; assay: Cytotoxicity in Huh7.5 cells, nuclei count (Example 6); type: cell-based, human; settings: Huh7.5 cells; read-out: CC50
[7] = tested on: SARS-CoV-2; assay: SARS-CoV-2 infection assay in TMPRSS2-Vero cells, nucleocapsid immunofluorescence (Example 6); type: cell-based; settings: MOI 0.01, 32 hours
[8] = tested on: TMPRSS2-Vero cells; assay: Cytotoxicity in TMPRSS2-Vero cells, nuclei count (Example 6); type: cell-based; settings: TMPRSS2-Vero cells; read-out: CC50
[9] = tested on: HFF cells; assay: Persistence of TFVpp in HFF cells after a 3 day exposure
Description: HFF cells were exposed to 1 micromolar drug for 3 days. At days 0, 1, 2, 4, 7, 14, 21, and 28, cells were trypsinized, counted, and processed for LC/MS measurement of TFVpp. Data were expressed at ftg/cell. nm=not meaningful; ftg—gemtogram.

[10] = tested on: HIV-1; settings: HIV infected human PBMCs
Description: Antiviral activities were determined in HIV infected human PBMCs.

| Compound | CC50 [1] | EC50 [2] | EC90 [2] | EC50 [3] | EC90 [3] | CC50 [4] | EC50 [5] | EC90 [5] | CC50 [6] | EC50 [7] | EC90 [7] | CC50 [8] | T1/2 of TFVpp [9] | Tmax of TFVpp [9] | EC50 [10] |
| --- | --- | --- | --- | --- | --- | --- | --- | --- | --- | --- | --- | --- | --- | --- | --- |
| 1-O-Octadecyl-2-O-(ethylcyclohexyl)-sn-glyceryl-phospho-RVn [Compound 15g] | > 20 µM | 147 ± 32 nM | 1660 ± 798 nM | – | – | – | – | – | – | – | – | – | – | – | – |
| 2-(Octadecyloxy)ethyl benzyl phospho-RVn [Compound 6c] | – | – | – | 220 ± 56 nM | 440 ± 85 nM | > 50 µM | – | – | – | – | – | – | – | – | – |
| CCCCCCCCCCCCCCCCCCOCC(COP(=O)(O)OC[C@H]1O[C@@](C#N)(c2ccc3c(N)ncnn23)[C@H](O)[C@@H]1O)OCc1ccccc1 (mixture of isomers) [Compound 15e, 1-O-octadecyl-2-O-benzyl-rac-glyceryl-phospho-RVn] | > 20 µM | 210 ± 62 nM | 763 ± 490 nM | 210 ± 4 nM | 350 ± 6 nM | 30.9 ± 7.7 µM | 163 nM | 514 nM | > 20 µM | 242 nM | 642 nM | > 20 µM | – | – | – |
| CCCCCCCCCCCCCCCCCCCCOP(=O)(O)OC[C@H]1O[C@](C#N)(c2ccc3c(N)ncnn23)[C@H](O)[C@@H]1O [Compound 4a, Eicosyl-phospho-RVn] | > 20 µM | 178 ± 35 nM | 1320 ± 566 nM | 910 nM | 1800 nM | > 50 µM | 1410 nM | 4750 nM | > 20 µM | 1170 nM | 2180 nM | > 20 µM | – | – | – |
| CCCCCCCCCCCCCCOC[C@H](COP(=O)(O)OC[C@H]1O[C@@](C#N)(c2ccc3c(N)ncnn23)[C@H](O)[C@@H]1O)OCc1ccccc1 [Compound 15a, 1-O-Tetradecyl-2-O-benzyl-sn-glyceryl-phospho-RVn] | > 20 µM | 212 ± 25 nM | 536 ± 150 nM | 760 ± 340 nM | 3250 nM | > 50 µM | 156 nM | 493 nM | > 20 µM | 901 nM | 1690 nM | > 20 µM | – | – | – |
| CCCCCCCCCCCCCCCCOC[C@H](COP(=O)(O)OC[C@H]1O[C@@](C#N)(c2ccc3c(N)ncnn23)[C@H](O)[C@@H]1O)OCc1ccccc1 [Compound 15b, 1-O-Hexadecyl-2-O-benzyl-sn-glyceryl-phospho-RVn] | 88.2 ± 8.89 µM | 101 ± 20 nM | 623 ± 272 nM | 560 ± 270 nM | 980 ± 380 nM | > 50 µM | 130 nM | 309 nM | > 20 µM | 395 nM | 810 nM | > 20 µM | – | – | – |
| CCCCCCCCCCCCCCCCCCOC[C@H](COP(=O)(O)OC[C@H]1O[C@@](C#N)(c2ccc3c(N)ncnn23)[C@H](O)[C@@H]1O)OCCCCCCCC [Compound 15f, 1-O-Octadecyl-2-O-octyl-sn-glyceryl-phospho-RVn] | > 20 µM | 410 ± 60 nM | 2310 ± 738 nM | 120 ± 57 nM | 290 ± 58 nM | > 50 µM | 710 nM | 1710 nM | > 20 µM | 1330 nM | 2350 nM | > 20 µM | – | – | – |
| CCCCCCCCCCCCCCCCCCOC[C@H](COP(=O)(O)OC[C@H]1O[C@@](C#N)(c2ccc3c(N)ncnn23)[C@H](O)[C@@H]1O)OCc1cccc(F)c1 [Compound 15h, 1-O-Octadecyl-2-O-(3-fluoro-benzyl)-sn-glyceryl-phospho-RVn] | > 20 µM | 216 ± 62 nM | 548 ± 368 nM | 1400 ± 58 nM | 2800 ± 40 nM | 22.9 ± 0.1 µM | 182 nM | 444 nM | > 20 µM | 270 nM | 629 nM | > 20 µM | – | – | – |
| CCCCCCCC/C=C\CCCCCCCCOC[C@H](COP(=O)(O)OC[C@H]1O[C@@](C#N)(c2ccc3c(N)ncnn23)[C@H](O)[C@@H]1O)OCc1ccccc1 [Compound 15l, 1-O-Oleyl-2-O-benzyl-sn-glyceryl-phospho-RVn] | 79 ± 6.95 µM | 198 ± 77 nM | 294 ± 93 nM | 130 ± 29 nM | 260 ± 3.7 nM | > 50 µM | 100 nM | 246 nM | > 20 µM | 295 nM | 568 nM | > 20 µM | – | – | – |
| CCCCCCCCCCCCCCCCCCOC[C@@H](COP(=O)(O)OC[C@H]1O[C@@](C#N)(c2ccc3c(N)ncnn23)[C@H](O)[C@@H]1O)OCc1ccccc1 [Compound 15n, 3-O-Octadecyl-2-O-benzyl-sn-glyceryl-1-phospho-RVn] | > 20 µM | 163 ± 22 nM | 623 ± 183 nM | – | – | – | – | – | – | – | – | – | – | – | – |
| CCCCCCCCCCCCCCCCCCOC[C@H](COP(=O)(O)OC[C@H]1O[C@@](C#N)(c2ccc3c(N)ncnn23)[C@H](O)[C@@H]1O)OCc1cccc(C(F)(F)F)c1 [Compound 15o, 1-O-Octadecyl-2-O-(3-trifluoromethyl)benzyl-sn-glyceryl-phospho-RVn] | > 20 µM | 166 ± 68 nM | 278 ± 109 nM | 160 ± 46 nM | 460 ± 270 nM | 16 ± 2.8 µM | – | – | – | – | – | – | – | – | – |
| CCCCCCCCCCCCCCCCCCOC[C@H](COP(=O)(O)OC[C@H]1O[C@@](C#N)(c2ccc3c(N)ncnn23)[C@H](O)[C@@H]1O)OCc1ccc(C(F)(F)F)cc1 [Compound 15p, 1-O-Octadecyl-2-O-(4-trifluoromethyl)benzyl-sn-glyceryl-phospho-RVn] | – | – | – | – | 330 ± 39 nM | 13.9 ± 8.8 µM | – | – | – | – | – | – | – | – | – |
| CCCCCCCCCCCCCCCCCCOC[C@H](COP(=O)(OCc1ccccc1)OC[C@H]1O[C@@](C#N)(c2ccc3c(N)ncnn23)[C@H](O)[C@@H]1O)OCc1ccccc1 (stereo partly drawn) [Compound 17, 1-O-Octadecyl-2-O-benzyl-sn-glyceryl-benzyl-phospho-RVn] | > 20 µM | 5320 ± 1390 nM | 10900 ± 5480 nM | 1500 ± 930 nM | 4270 ± 880 nM | > 50 µM | 3540 nM | 16400 nM | > 20 µM | 7440 nM | 15300 nM | > 20 µM | – | – | – |
| CCCCCCCCCCCCCCCCCCOC[C@H](COP1(=O)OC[C@H]2O[C@@](C#N)(c3ccc4c(N)ncnn34)[C@H](O)[C@@H]2O1)OCc1ccccc1 (stereo partly drawn) [Compound 18-eq, GS-441524-3′,5′-cyclic monophosphate, 1-O-octadecyl-2-O-benzyl-sn-glyceryl ester] | > 20 µM | > 20000 nM | > 20000 nM | – | – | – | – | – | – | – | – | – | – | – | – |
| CCCCCCCCCCCCCCCCCCOCCOP1(=O)OCC2OC(C#N)(c3ccc4c(N)ncnn34)C(O)C2O1 (stereo not drawn) [Compound 19-ax] | > 20 µM | 8150 ± 8420 nM | > 20000 nM | – | – | – | – | – | – | – | – | – | – | – | – |
| CCCCCCCCCCCCCCCCCCOCCO[P@]1(=O)OC[C@H]2O[C@](C#N)(c3ccc4c(N)ncnn34)[C@H](O)[C@@H]2O1 [Compound 19-eq] | > 20 µM | 2760 ± 808 nM | 19200 ± 12700 nM | – | – | – | – | – | – | – | – | – | – | – | – |
| CCCCCCCCCCCCCCCCOCCCOP(=O)(CO[C@H](C)Cn1cnc2c(N)ncnc21)OCc1ccccc1 (stereo partly drawn) [HDP-Bn-TFV] | – | – | – | – | – | – | – | – | – | – | – | – | 1.8 | 0 days | – |
| CCCCCCCCCCCCCCCCCCOCCOP(=O)(CO[C@H](C)Cn1cnc2c(N)nc(N)nc21)OCc1ccccc1 (stereo partly drawn) [ODE-Bn-PMPDAP, Octadecyloxyethyl benzyl 9-(R)-[(2-phosphonomethoxy)propyl]-2,6-diaminopurine] | – | – | – | – | – | – | – | – | – | – | – | – | – | – | active |
| CCCCCCCC/C=C\CCCCCCCCOCCOP(=O)(CO[C@H](C)Cn1cnc2c(N)nc(N)nc21)OCc1ccccc1 (stereo partly drawn) [OLE-Bn-PMPDAP, Oleyloxyethyl benzyl 9-(R)-[(2-phosphonomethoxy)propyl]-2,6-diaminopurine] | – | – | – | – | – | – | – | – | – | – | – | – | – | – | active |
